Data from patent US10584361B2, “Algae having intracellular lipid particles and high lipid content” (THE UNIVERSITY OF AKRON, priority 2012, dated 2020).
Where two headings read alike, the source gives them in different places.

How the values were obtained:
[1] = tested on: algae; settings: 0.5 g/L sodium acetate, within 6 hours, increased from 40%; pH 5; then decreased
Experimental: For the dry weight analysis, algal cells were collected by centrifuging at 300 g for 10 min. After washing with deionized water once, the precipitant of the sample was transferred to pre-weighed aluminum plates and dried to a constant weight in an oven at 70 degrees C.
For the lipid analysis, the algal cells were collected at 300 g for 10 min. Then the lipid content of the precipitant from the sample was analyzed with the same lipid extraction procedure, which is modified from the Folch method. The specific procedure was: • i. Add 8 mL of chloroform and methanol mixture (2:1, v/v) to the sample • ii. Add 0.1 mL of HCl (5 M) to the sample • iii. Gradually add deionized water to the sample until a second phase appears • iv. Vortex for 3 min at full power (Vortex-Genie 2) • v. Rotate 20 min at 40% output (Glas-Col) • vi. Centrifuge at 3620 g for 5 min • vii. Collect the lower chloroform phase into a pre-weighed drying vessel • viii. Add 5 mL of chloroform and methanol mixture (2:1, v/v) to the sample and repeat steps iv, v, vi and vii • ix. Air dry the vessel to a constant weight and measure the weight.
Algae were first cultured and then collected by centrifuge. After washing with deionized water once, algae were re-suspended into salts solution (Table 1). […] During the batch studies, the pH of all systems was maintained at 5 with 0.05 mol/L NaOH and 0.05 mol/L HCl. […]

[2] = tested on: algae; experiment: Lipid enhancement with glycerol (algae re-suspended in salts solution); format: cell-based; settings: 0.5, 1 and 5 g/L glycerol (all systems), within 24 h; pH 5; then decreased slightly
Experimental: The specific procedure was: • i. […] Rotate 20 min at 40% output (Glas-Col) • vi. Centrifuge at 3620 g for 5 min • vii.
Algae were first cultured and then collected by centrifuge.
The thin layer chromatography analysis was performed the same as in Experiment 2.

SMILES | lipid content [1] | lipid content [2]
CC(=O)[O-].[Na+] [sodium acetate] | 65 % of the dry weight | –
OCC(O)CO [glycerol] | – | about 40 % of the dry weight
